# According to publication PMC9927415, “Tyrosine Kinase Inhibitors Display Potent Activity against Cryptosporidium parvum” (Microbiology Spectrum, 2022):
# Assays:
# Assay in all cases: KINOMEscan competitive binding, whole panel
# panel of 203 kinases [1] = target: T1, panel of 203 kinases (Homo sapiens, UniProt P29317); settings: 10 µM, n=1; kinase EPHA2; read-out: Percent inhibition EPHA2
# T1 construct: purchased DiscoverX (KINOMEscan)
# How it was run: (§1)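 Read-out is the amount of kinase still captured on an immobilized ATP-site probe after exposure to test compound, expressed as percentage inhibition.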
# panel of 203 kinases [2] = target: T2, panel of 203 kinases (Homo sapiens, UniProt P37023); settings: 10 µM, n=1; kinase ACVRL1; read-out: Percent inhibition ACVRL1
# T2 construct: purchased DiscoverX (KINOMEscan)
# How it was run: as §1
# panel of 203 kinases [3] = target: T3, panel of 203 kinases (Homo sapiens, UniProt Q9HBH9); settings: 10 µM, n=1; kinase MKNK2; read-out: Percent inhibition MKNK2
# T3 construct: purchased DiscoverX (KINOMEscan)
# How it was run: as §1
# panel of 203 kinases [4] = target: T4, panel of 203 kinases (Homo sapiens, UniProt P07332); settings: 10 µM, n=1; kinase FES; read-out: Percent inhibition FES
# T4 construct: purchased DiscoverX (KINOMEscan)
# How it was run: as §1
# panel of 203 kinases [5] = target: T5, panel of 203 kinases (Homo sapiens, UniProt P22455); settings: 10 µM, n=1; kinase FGFR4; read-out: Percent inhibition FGFR4
# T5 construct: purchased DiscoverX (KINOMEscan)
# How it was run: as §1
# panel of 203 kinases [6] = target: T6, panel of 203 kinases (Homo sapiens, UniProt P21802); settings: 10 µM, n=1; kinase FGFR2; read-out: Percent inhibition FGFR2
# T6 construct: purchased DiscoverX (KINOMEscan)
# How it was run: as §1
# panel of 203 kinases [7] = target: T7, panel of 203 kinases (Homo sapiens, UniProt P06239); settings: 10 µM, n=1; kinase LCK; read-out: Percent inhibition LCK
# T7 construct: purchased DiscoverX (KINOMEscan)
# How it was run: as §1
# panel of 203 kinases [8] = target: T8, panel of 203 kinases (Homo sapiens, UniProt Q96RR4); settings: 10 µM, n=1; kinase CAMKK2; read-out: Percent inhibition CAMKK2
# T8 construct: purchased DiscoverX (KINOMEscan)
# How it was run: as §1
# panel of 203 kinases [9] = target: T9, panel of 203 kinases (Homo sapiens, UniProt Q13557); settings: 10 µM, n=1; kinase CAMK2D; read-out: Percent inhibition CAMK2D
# T9 construct: purchased DiscoverX (KINOMEscan)
# How it was run: as §1
# panel of 203 kinases [10] = target: T10, panel of 203 kinases (Homo sapiens, UniProt Q7KZI7); settings: 10 µM, n=1; kinase MARK2; read-out: Percent inhibition MARK2
# T10 construct: purchased DiscoverX (KINOMEscan)
# How it was run: as §1
# panel of 203 kinases [11] = target: T11, panel of 203 kinases (Homo sapiens, UniProt Q8IVH8); settings: 10 µM, n=1; kinase MAP4K3; read-out: Percent inhibition MAP4K3
# T11 construct: purchased DiscoverX (KINOMEscan)
# T11 sequence (Q8IVH8 1-894): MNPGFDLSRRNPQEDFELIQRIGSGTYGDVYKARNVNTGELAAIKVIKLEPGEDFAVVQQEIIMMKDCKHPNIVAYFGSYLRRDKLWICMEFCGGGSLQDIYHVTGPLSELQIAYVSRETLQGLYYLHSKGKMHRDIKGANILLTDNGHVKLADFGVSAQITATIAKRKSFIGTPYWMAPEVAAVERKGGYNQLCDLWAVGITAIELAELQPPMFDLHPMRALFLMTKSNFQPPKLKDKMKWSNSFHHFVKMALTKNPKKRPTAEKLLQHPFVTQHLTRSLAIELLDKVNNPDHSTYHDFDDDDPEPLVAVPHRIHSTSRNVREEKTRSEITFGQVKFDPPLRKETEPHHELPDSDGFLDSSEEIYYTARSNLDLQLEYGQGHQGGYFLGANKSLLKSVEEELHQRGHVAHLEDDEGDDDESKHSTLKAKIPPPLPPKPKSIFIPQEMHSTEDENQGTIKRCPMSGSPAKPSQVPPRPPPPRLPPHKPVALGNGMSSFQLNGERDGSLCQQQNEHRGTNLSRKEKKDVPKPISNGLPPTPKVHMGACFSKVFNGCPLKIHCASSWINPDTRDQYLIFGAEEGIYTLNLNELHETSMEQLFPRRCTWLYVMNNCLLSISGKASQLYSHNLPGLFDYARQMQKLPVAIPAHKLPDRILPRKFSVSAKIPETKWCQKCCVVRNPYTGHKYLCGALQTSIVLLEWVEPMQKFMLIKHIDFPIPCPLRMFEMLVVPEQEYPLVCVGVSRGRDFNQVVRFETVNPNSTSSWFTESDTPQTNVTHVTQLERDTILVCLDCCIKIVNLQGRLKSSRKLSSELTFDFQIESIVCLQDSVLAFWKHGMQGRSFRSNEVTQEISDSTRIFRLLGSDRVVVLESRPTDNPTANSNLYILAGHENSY
# How it was run: as §1
# panel of 203 kinases [12] = target: T12, panel of 203 kinases (Homo sapiens, UniProt Q9P2K8, S808G); settings: 10 µM, n=1; kinase GCN2(Kin.Dom.2,S808G); read-out: Percent inhibition GCN2(Kin.Dom.2,S808G)
# T12 construct: purchased DiscoverX (KINOMEscan)
# How it was run: as §1
# panel of 203 kinases [13] = target: T13, panel of 203 kinases (Homo sapiens, UniProt P06213); settings: 10 µM, n=1; kinase INSR; read-out: Percent inhibition INSR
# T13 construct: purchased DiscoverX (KINOMEscan)
# How it was run: as §1
# panel of 203 kinases [14] = target: T14, panel of 203 kinases (Homo sapiens, UniProt Q9P289); settings: 10 µM, n=1; kinase MST4; read-out: Percent inhibition MST4
# T14 construct: purchased DiscoverX (KINOMEscan)
# How it was run: as §1
# panel of 203 kinases [15] = target: T15, panel of 203 kinases (Homo sapiens, UniProt Q16584); settings: 10 µM, n=1; kinase MLK3; read-out: Percent inhibition MLK3
# T15 construct: purchased DiscoverX (KINOMEscan)
# How it was run: as §1
# panel of 203 kinases [16] = target: T16, panel of 203 kinases (Homo sapiens, UniProt P29376); settings: 10 µM, n=1; kinase LTK; read-out: Percent inhibition LTK
# T16 construct: purchased DiscoverX (KINOMEscan)
# How it was run: as §1
# panel of 203 kinases [17] = target: T17, panel of 203 kinases (Homo sapiens, UniProt P08631); settings: 10 µM, n=1; kinase HCK; read-out: Percent inhibition HCK
# T17 construct: purchased DiscoverX (KINOMEscan)
# How it was run: as §1
# panel of 203 kinases [18] = target: T18, panel of 203 kinases (Homo sapiens, UniProt Q13554); settings: 10 µM, n=1; kinase CAMK2B; read-out: Percent inhibition CAMK2B
# T18 construct: purchased DiscoverX (KINOMEscan)
# How it was run: as §1
# panel of 203 kinases [19] = target: T19, panel of 203 kinases (Homo sapiens, UniProt Q15303); settings: 10 µM, n=1; kinase ERBB4; read-out: Percent inhibition ERBB4
# T19 construct: purchased DiscoverX (KINOMEscan)
# How it was run: as §1
# T18 sequence (Q13554 whole entry): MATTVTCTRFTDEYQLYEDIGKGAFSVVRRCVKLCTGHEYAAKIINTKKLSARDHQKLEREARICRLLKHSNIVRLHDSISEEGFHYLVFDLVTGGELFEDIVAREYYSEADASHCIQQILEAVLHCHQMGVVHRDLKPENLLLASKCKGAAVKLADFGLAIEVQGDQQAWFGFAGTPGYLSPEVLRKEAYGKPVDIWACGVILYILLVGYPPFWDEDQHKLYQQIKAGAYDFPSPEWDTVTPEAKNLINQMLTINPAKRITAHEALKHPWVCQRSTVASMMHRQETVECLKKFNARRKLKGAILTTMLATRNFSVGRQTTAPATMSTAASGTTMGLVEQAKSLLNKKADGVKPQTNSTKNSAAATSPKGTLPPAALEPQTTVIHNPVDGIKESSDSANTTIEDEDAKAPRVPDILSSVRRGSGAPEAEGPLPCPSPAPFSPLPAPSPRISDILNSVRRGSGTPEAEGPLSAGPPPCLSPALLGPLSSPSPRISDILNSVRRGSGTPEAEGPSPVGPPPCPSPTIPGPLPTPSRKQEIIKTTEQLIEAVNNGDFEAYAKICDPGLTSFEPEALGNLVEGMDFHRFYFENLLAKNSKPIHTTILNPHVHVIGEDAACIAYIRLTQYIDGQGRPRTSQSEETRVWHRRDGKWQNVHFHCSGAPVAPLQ
# T14 sequence (Q9P289 whole entry): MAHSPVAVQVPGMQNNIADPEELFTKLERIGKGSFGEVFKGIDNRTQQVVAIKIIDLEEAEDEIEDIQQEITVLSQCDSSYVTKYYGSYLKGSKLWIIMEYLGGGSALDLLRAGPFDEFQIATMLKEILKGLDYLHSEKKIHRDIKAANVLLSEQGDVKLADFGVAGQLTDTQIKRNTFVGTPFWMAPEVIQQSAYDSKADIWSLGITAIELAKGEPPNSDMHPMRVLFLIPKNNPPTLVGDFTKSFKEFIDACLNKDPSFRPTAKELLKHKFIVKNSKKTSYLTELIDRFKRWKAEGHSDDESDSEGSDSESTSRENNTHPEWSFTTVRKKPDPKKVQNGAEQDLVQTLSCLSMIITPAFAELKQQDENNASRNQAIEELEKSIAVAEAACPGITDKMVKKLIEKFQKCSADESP
# T3 sequence (Q9HBH9 whole entry): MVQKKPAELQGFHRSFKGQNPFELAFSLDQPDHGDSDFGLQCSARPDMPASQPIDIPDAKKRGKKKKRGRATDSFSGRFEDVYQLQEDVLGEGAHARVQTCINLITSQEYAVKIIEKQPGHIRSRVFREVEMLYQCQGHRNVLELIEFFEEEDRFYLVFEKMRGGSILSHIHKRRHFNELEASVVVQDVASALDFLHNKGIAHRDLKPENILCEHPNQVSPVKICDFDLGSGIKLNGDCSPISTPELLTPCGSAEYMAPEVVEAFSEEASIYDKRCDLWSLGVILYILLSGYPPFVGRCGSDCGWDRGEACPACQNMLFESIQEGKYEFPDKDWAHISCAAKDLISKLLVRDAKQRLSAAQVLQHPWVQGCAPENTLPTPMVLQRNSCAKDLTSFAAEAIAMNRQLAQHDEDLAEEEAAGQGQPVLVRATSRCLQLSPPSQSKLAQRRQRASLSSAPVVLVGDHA
# T9 sequence (Q13557 whole entry): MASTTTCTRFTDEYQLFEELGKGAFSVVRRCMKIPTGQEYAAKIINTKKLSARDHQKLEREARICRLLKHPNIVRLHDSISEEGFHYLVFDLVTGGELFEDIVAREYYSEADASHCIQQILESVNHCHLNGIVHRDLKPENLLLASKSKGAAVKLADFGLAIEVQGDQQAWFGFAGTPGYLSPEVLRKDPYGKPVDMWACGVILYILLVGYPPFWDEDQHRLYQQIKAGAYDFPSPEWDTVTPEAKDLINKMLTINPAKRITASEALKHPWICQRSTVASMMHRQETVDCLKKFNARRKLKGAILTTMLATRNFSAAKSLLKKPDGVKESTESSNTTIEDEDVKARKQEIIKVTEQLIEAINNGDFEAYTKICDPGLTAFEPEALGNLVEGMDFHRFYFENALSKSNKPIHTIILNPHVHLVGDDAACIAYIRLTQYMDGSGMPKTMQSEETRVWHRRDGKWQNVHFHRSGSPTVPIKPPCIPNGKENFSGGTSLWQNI
# T8 sequence (Q96RR4 whole entry): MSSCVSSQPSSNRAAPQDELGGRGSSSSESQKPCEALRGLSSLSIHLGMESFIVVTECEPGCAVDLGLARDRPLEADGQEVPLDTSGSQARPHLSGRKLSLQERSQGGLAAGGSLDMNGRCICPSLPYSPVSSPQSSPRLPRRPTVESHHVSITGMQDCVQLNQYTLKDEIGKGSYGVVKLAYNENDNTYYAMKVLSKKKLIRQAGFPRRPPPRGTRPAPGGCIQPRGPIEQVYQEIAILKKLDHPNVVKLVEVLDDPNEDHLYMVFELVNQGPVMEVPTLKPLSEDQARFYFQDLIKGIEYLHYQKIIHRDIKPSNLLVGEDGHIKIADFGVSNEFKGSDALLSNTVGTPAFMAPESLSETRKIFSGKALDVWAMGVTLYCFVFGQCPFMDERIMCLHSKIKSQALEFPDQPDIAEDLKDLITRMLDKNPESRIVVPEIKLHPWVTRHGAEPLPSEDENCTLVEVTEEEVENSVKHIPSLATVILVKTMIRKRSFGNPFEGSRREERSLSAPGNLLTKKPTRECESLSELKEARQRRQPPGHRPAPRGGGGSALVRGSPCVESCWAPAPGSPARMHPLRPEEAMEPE
# T17 sequence (P08631 whole entry): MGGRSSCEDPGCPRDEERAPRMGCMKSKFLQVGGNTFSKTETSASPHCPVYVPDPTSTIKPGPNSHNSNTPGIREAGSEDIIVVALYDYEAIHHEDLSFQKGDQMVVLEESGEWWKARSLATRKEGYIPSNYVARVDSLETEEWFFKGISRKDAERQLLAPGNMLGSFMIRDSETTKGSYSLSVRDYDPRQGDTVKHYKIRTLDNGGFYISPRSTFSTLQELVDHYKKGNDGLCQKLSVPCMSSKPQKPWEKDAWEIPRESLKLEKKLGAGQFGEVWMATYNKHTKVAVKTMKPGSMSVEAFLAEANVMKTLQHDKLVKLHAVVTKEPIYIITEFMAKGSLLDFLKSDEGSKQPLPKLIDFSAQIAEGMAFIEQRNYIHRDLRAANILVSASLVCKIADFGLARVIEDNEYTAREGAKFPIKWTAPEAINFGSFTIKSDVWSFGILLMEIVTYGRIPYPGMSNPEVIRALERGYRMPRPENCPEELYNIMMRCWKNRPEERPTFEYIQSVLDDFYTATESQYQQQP
# T5 sequence (P22455 22-802): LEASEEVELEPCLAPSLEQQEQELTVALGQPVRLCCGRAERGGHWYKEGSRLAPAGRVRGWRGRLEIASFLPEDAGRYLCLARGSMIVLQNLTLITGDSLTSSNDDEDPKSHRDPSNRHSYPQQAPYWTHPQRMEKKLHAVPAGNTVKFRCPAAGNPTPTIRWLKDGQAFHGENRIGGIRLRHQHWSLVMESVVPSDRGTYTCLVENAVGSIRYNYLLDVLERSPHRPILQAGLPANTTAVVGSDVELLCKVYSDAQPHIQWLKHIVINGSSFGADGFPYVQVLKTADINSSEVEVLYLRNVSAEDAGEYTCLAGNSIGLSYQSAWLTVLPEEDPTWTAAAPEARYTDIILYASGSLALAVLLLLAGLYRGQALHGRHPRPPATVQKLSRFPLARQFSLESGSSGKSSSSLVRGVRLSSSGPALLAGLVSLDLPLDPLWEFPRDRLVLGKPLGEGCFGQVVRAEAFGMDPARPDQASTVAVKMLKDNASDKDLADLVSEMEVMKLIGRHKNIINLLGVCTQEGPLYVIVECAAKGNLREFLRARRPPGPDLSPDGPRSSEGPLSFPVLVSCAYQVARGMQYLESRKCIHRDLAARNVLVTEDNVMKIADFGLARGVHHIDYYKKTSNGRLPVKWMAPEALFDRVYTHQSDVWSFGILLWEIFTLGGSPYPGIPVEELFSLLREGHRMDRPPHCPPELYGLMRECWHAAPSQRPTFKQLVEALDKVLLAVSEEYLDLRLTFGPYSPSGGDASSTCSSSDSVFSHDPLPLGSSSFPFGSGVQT
# T10 sequence (Q7KZI7 whole entry): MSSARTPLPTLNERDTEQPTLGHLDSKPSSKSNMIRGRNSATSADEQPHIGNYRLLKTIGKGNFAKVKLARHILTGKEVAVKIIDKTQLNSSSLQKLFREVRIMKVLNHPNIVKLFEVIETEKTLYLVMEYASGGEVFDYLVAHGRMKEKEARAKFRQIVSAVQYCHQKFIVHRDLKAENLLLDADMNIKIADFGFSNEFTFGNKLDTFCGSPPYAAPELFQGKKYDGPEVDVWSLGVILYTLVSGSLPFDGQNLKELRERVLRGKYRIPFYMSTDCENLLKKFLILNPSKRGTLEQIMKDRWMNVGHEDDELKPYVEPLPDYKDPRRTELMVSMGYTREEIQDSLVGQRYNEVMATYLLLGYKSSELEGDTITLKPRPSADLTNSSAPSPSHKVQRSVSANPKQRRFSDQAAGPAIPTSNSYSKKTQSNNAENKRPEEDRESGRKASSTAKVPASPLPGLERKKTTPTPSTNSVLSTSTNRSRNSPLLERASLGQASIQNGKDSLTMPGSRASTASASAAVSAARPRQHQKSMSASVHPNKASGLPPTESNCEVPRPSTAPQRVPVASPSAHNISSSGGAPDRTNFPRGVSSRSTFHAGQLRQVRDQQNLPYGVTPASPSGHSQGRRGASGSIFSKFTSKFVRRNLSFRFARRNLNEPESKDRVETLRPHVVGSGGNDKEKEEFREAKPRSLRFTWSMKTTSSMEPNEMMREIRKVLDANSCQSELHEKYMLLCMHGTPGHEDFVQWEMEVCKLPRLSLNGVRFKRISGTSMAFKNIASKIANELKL
smiles,measurement,setting,value
Nc1ncc2c(-c3ccncc3)c[nH]c2n1 [Compound 11],inhibition at 10 µM,panel of 203 kinases [1],0%
same,inhibition at 10 µM,panel of 203 kinases [2],0%
same,inhibition at 10 µM,panel of 203 kinases [3],97.3%
same,inhibition at 10 µM,panel of 203 kinases [4],0%
same,inhibition at 10 µM,panel of 203 kinases [5],0%
same,inhibition at 10 µM,panel of 203 kinases [6],0%
same,inhibition at 10 µM,panel of 203 kinases [7],0%
same,inhibition at 10 µM,panel of 203 kinases [8],0%
same,inhibition at 10 µM,panel of 203 kinases [9],0%
same,inhibition at 10 µM,panel of 203 kinases [10],0%
same,inhibition at 10 µM,panel of 203 kinases [11],82%
same,inhibition at 10 µM,panel of 203 kinases [12],88.5%
same,inhibition at 10 µM,panel of 203 kinases [13],0%
same,inhibition at 10 µM,panel of 203 kinases [14],84%
same,inhibition at 10 µM,panel of 203 kinases [15],82.8%
same,inhibition at 10 µM,panel of 203 kinases [16],0%
same,inhibition at 10 µM,panel of 203 kinases [17],66.9%
same,inhibition at 10 µM,panel of 203 kinases [18],85.7%
same,inhibition at 10 µM,panel of 203 kinases [19],0%
